Patent EP1743641A1, “Use of substituted pyrazoline compounds for the treatment of food disorders, including obesity or metabolic syndrome in patients with developed diabetes” (LABORATORIOS DEL DR. ESTEVE, S.A., priority 2005, dated 2007)

Assays:
CB1-Receptor = biological target: T1, CB1-Receptor (Homo sapiens, UniProt P21554); test: In-vitro determination of affinity to CB1 receptor (radioligand [3H]-CP55940); type: binding
T1 construct: purchased Receptor Biology, Inc
Experimental: (§1) The in-vitro determination of the affinity of the substituted pyrazoline compounds to CB1/CB2-Rezeptors is carried out as described in the publication of Ruth A. Ross, Heather C. Brockie et al., "Agonist-inverse agonist characterization at CB1 and CB2 cannabinoid receptors of L-759633, L759656 and AM630", British Journal of Pharmacology, 126, 665-672, (1999), whereby the transfected human CB1 and CB2 receptors of Receptor Biology, Inc. are used. The radioligand used for both receptors is [^3H]-CP55940. The respective parts of the description is hereby incorporated by reference and forms part of the present disclosure.
The affinity of the inventive substituted pyrazoline compounds to CB1/CB2 receptors was determined as described above.

cannabinoid receptors [1] = test: Mouse tetrad model, antagonistic effect against Win 55212-2; type: in vivo, Male NMRI mice; parameters: unit not given here; conditions: 5 mg/kg i.v. prior to Win 55212-2 in a dose of 1,25mg/kg i.v., mice
Excerpt: (§2) Substances with affinity for cannabinoid receptors are known to produce a wide range of pharmacological effects. It is also known that intravenous administration of a substance with affinity for cannabinoid receptors in mice produces analgesia , hypothermia, sedation and catalepsy. Individually, none of these effects can be considered as proof that a tested substance has affinity for cannabinoid-receptors, since all of these effects are common for various classes of centrally active agents. However, substances, which show all of these effects, i.e. substances that are active in this so-called tetrad model are considered to have affinity for the cannabinoid receptors. It has further been shown that cannabinoid receptor antagonists are higly effective in blocking the effects of a cannabinoid agonist in the mouse tetrad model.
(§3) The tetrad model is described, for example, in the publication of A. C. Howlett et al, International Union of Pharmacology XXVII. Classification of Cannabinoid e cept σs, Pharmacol Rev 54, 161-202 , 2002 and David R. Compton et al., "In-vivo Characterization of a Specific Cannabinoid Receptor Antagonist (SR141716A) :Inhibition of Tetrahydrocannbinol- induced Responses and Apparent Agonist Activity", J. Pharmacol. Exp. Ther. 277, 2, 586-594, 1996. The corresponding parts of the description are hereby incorporated by reference.
(§4) Male NMRI mice with a weight of 20-30 g (Harlan, Barcelona, Spain) are used in all of the following experiments.
(§5) Before testing in the behavioral procedures given below, mice are acclimatized to the experimental setting. Pre-Treatment control values are determined for analgesia hot plate latency (in seconds), rectal temperature, sedation and catalepsy.
(§6) In order to determine the agonistic activty of the substance to be tested, the mice are injected intravenously with the substance to be tested or the vehicle alone. 15 minutes after injection, latency in hot plate analgesia is measured. Rectal temperature, sedation and catalepsy are measured 20 minutes after injection.
In order to determine the antagonistic activity the identical procedure is used as for the determination of the agonistic effects, but with the difference that the substance to be evaluated for its antagonistic activity is injectected 5 minutes before the intravenous injection of 1.25 mg/kg Win-55,212 a known cannabinoid-receptor agonist.
(§7) The hot plate analgesia is determined according to the method described in Woolfe D. et al. "The evaluation of analgesic action of pethidine hydrochloride (Demerol)", J. Pharmacol. Exp. Ther. 80, 300-307,1944. The respective description is hereby incorporated by reference and forms part of the present disclosure.
(§8) The mice are placed on a hot plate (Harvard Analgesimeter) at 55 ± 0.5 °C until they show a painful sensation by licking their paws or jumping and the time for these sensations to occur is recorded. This reading is considered the basal value (B). The maximum time limit the mice are allowed to remain on the hot plate in absence of any painful response is 40 seconds in order to prevent skin damage. This period is called the cut-off time (PC).
(§9) Fifteen minuts after the administration of the substance to be tested, the mice are again placed on the hot plate and the afore described procedure is repeated. This period is called the post-treatment reading (PT).
(§10) %MPEof Analgesia = (PT−B)/(PC−B) × 100 [formula]
(§11) Sedation and ataxia is determined according to the method described in Desmet L. K. C. et al. "Anticonvulsive properties of Cinarizine and Flunarizine in Rats and Mice", Arzneim. -Forsch. (Frug Res) 25, 9, 1975. The respective description is hereby incorporated by reference and forms part of the present disclosure.
(§12) The chosen scoring system is
%of sedation = arithmetic mean/3 × 100 [formula] […]

cannabinoid receptors [2] = test: Mouse tetrad model, agonistic effect; type: in vivo, Male NMRI mice; parameters: key to Agonistic effect D: Sedation: % of sedation = arithmetic mean score/3 × 100; conditions: 5 mg/kg i.v., mice
Excerpt: as §2, §3, §4, §5, §6, §7, §8, §9, §10, §11, §12
%of sedation = arithmetic mean/3 × 100 [formula]
Hypothermia is determined according to the method described in David R. Compton et al. "In-vivo Characterization of a Specific Cannabinoid Receptor Antagonist (SR141716A) Inhibition of Tetrahydrocannbinol- induced Responses and Apparent Agonist Activity", J. Pharmacol Exp Ther. 277 , 2, 586-594, 1996. The respective description is hereby incorporated by reference and forms part of the present disclosure. […]

CB2-Receptor = biological target: T2, CB2-Receptor (Homo sapiens, UniProt P34972); test: In-vitro determination of affinity to CB2 receptor (radioligand [3H]-CP55940); type: binding
T2 construct: purchased Receptor Biology, Inc
Experimental: as §1, with “disclosure. The affinity of the inventive substituted pyrazoline compounds to CB1/CB2 receptors was determined as described above.” for “disclosure.”

T2 sequence (P34972 whole entry): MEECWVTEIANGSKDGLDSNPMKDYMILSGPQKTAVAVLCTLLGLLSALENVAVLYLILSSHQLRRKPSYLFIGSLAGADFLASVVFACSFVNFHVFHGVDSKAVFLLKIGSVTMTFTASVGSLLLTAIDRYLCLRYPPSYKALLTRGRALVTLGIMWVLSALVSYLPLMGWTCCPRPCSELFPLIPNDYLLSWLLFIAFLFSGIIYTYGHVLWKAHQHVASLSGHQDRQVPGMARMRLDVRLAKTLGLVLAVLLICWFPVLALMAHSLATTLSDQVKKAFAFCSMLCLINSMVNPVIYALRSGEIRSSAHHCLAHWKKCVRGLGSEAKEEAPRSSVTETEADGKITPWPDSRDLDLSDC
T1 sequence (P21554 whole entry): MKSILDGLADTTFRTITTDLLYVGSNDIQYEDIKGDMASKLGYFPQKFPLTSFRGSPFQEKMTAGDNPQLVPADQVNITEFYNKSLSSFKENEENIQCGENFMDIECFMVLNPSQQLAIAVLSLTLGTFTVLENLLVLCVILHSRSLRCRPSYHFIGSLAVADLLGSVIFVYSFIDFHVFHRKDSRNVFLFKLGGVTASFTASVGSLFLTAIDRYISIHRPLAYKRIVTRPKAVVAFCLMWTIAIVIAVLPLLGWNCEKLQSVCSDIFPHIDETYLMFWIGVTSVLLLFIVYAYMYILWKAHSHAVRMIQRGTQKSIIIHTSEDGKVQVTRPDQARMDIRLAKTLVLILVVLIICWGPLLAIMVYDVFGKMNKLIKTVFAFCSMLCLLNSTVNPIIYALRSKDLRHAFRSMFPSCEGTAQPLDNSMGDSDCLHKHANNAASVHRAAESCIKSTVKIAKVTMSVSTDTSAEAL

| SMILES | Ki (CB1-Receptor) | Antagonistic Effect A: Hot-Plate test (cannabinoid receptors [1]) | Antagonistic Effect B: Hypothermia (cannabinoid receptors [1]) | Antagonistic Effect C: Catalepsy (cannabinoid receptors [1]) | Antagonistic Effect D: Sedation (cannabinoid receptors [1]) | Agonistic effect A: Hot-Plate test (cannabinoid receptors [2]) | Agonistic effect B: Hypothermia (cannabinoid receptors [2]) | Agonistic effect C: Catalepsy (cannabinoid receptors [2]) | Agonistic effect D: Sedation (cannabinoid receptors [2]) | Ki (CB2-Receptor) |
| --- | --- | --- | --- | --- | --- | --- | --- | --- | --- | --- |
| O=C(NN1CCCCC1)C1=NN(c2ccc(Cl)cc2Cl)C(c2ccc(Cl)cc2)C1 (stereo not shown) [Example 1, N-piperidinyl-5-(4-chlorophenyl)-1-(2,4-dichlorophenyl)-4,5-dihydro-1H-pyrazole-3-carboxamide] | < 0.025 µM | 74 | 100 | 100 | 100 | 0 | 0 | 0 | 0 | > 1 µM |
| O=C(C1=NN(c2ccc(Cl)cc2Cl)C(c2ccc(Cl)cc2)C1)N1CCCCC1 (stereo not shown) [Example 5, [5-(4-Chloro-phenyl)-1-(2,4-dichloro-phenyl)-4,5-dihydro-1H-pyrazol-3-yl]-piperidin-1-yl-methanone] | – | 50 | 40 | 20 | 20 | 0 | 50 | 0 | 0 | ~1 µM |
